Assay results from US9993462B2, “Hydantoin derivative-containing pharmaceutical composition” (Chugai Seiyaku Kabushiki Kaisha, priority 2014, dated 2018).

Columns and labels:
[1] = tested on: model rabbits with partially removed meniscus; experiment: Model rabbits with partially removed meniscus (osteoarthritis model), lesion area of articular cartilage; type: in vivo, rabbit; conditions: continuous administration to the knee joint by osmotic pump, 3.0 or 30 μg/mL, 14 days after surgery
Text: Twelve-week old male NZW rabbits (Oriental Yeast Co., Ltd.) were acclimated for five days, and then under isoflurane anesthesia, the lateral skin of the left knee joint was incised and the lateral collateral ligament and the sesamoid ligament were surgically removed to expose the lateral meniscus. The center of the lateral meniscus was excised at a width of 3 to 4 mm to produce an osteoarthritis model (Kikuchi T et al., Osteoarth Cart 1999; 4(2): 99-110). The tips of the three polyethylene tubes (PE60, Nippon Becton Dickinson Company) connected to three osmotic pumps (2ML1, Durect, Road Cupertino, Calif., US) that were embedded subcutaneously in the left femur were placed into the joint, and the drug solution was continuously administered to the knee joint. Each osmotic pump was filled with any of 1) vehicle control (50% dimethyl sulfoxide/50% physiological saline v/v); 2) Compound 7 at 3.0 μg/mL; or 3) Compound 7 at 30 μg/mL. […] Images of the surface structure of the lower leg bone were taken on a digital microscope (VHX-2000, Keyence Corporation), the area of the Indian ink-positive lesion site and the area of the entire lateral condyle were determined, and the proportion of the lesion site occupying the entire lateral condyle was calculated (FIG. 6).

[2] = tested on: TPTX rat; experiment: Calcemic action in the TPTX rat model; type: in vivo; conditions: TPTX rats, 30 mg/kg oral
Procedure: Four-week old female Crl:CD(SD) rats were obtained from Charles River Japan (Atsugi Breeding Center), and were acclimated to standard laboratory conditions of 20-26° C. and 35-75% humidity for one week. The rats were given tap water and were fed ad libitum with standard rodent chow (CE-2) (CLEA Japan, Inc.) containing 1.1% calcium, 1.0% phosphoric acid, and 250 IU/100 g of vitamin D3.
TPTX was performed on five-week old rats. Some of the individuals were subjected to sham operation (Sham). Individuals whose serum Ca concentration was less than 8 mg/dL on four days after the operation were selected for use as TPTX rats. On five days after the operation, the rats were assigned to eight TPTX groups and one Sham group (n=5, each group) based on their body weight and serum Ca concentration measured on four days after the operation. The solvent alone was orally administered to the Sham group and the TPTX-Vehicle group at a volume of 10 mL/kg. Each test article was orally administered individually to each TPTX test article group by dissolving it in a solvent at a dose of 30 mg/10 mL/kg. The solvent composition was 10% dimethylsulfoxide (Wako Pure Chemical Industries, Ltd.), 10% Cremophor EL (Sigma-Aldrich Japan LLC), 20% hydroxypropyl-β-cyclodextrin (Nihon Shokuhin Kako Co., Ltd.), glycine (Wako Pure Chemical Industries, Ltd.); and the pH was adjusted to 10. Immediately before administration of each sample, Pre-blood collection was performed, and blood collection was carried out at 2, 6, 10, and 24 hours after administration to measure the serum Ca concentration. Each blood collection was carried out from the jugular vein under isoflurane inhalation anesthesia.
Serum Ca measurement: Serum obtained by centrifugation from the collected blood was measured by using an automatic analyzer TBA-120FR (Toshiba Medical Systems Corporation).
For statistical analysis of the animal studies, data are shown as mean±standard error (SE). Statistical analysis were performed by unpaired test of the SAS Preclinical Package (Ver. 5.00.010720, SAS Institute Japan, Tokyo, Japan).

[3] = tested on: normal rats; experiment: Bone mineral density after four weeks of repeated intravenous administration to normal rats; type: in vivo, rat; conditions: intravenous once a day for four weeks
Procedure: Female RccHan: WIST rats obtained from Japan Laboratory Animals Inc. were acclimated for one week or longer under standard laboratory conditions of 20° C. to 26° C. and 30% to 70% humidity, and then used in experiments. The rats had free access to tap water and a standard rodent diet (CR-LPF) (Oriental Yeast Co., Ltd.).
Intravenous catheter was placed into eight-week old rats. The catheter was inserted from the femoral vein in the inguinal region, and the tip was extended into the caudal vena cava for placement at that site. The body weight was determined in the first week post-surgery, and the rats were divided into groups of ten animals per group so that the average body weight of each group would be even. Two days after group division, all rats were intravenously administered once a day repeatedly for four weeks. Administration was carried out by connecting an infusion pump (MEDFUSION SYRINGE INFUSION PUMP Model 2001) to the indwelling catheter.
The solvent (vehicle) was administered intravenously to the Vehicle-Control group. To the Compound 7-20 mg/kg, −30 mg/kg, and −50 mg/kg groups, Compound 7 dissolved in the vehicle was administered intravenously at a dose of 20 mg/kg, 30 mg/kg, and 50 mg/kg, respectively. For all groups, the administration volume was 5 mL/kg and the administration speed was 5 mL/kg/minute. The composition of the vehicle used was 5% dimethyl sulfoxide (Wako Pure Chemical Industries, Ltd.), 25% propylene glycol (Kanto Chemical Co., Inc.)/20% ethanol (Junsei Chemical Co., Ltd.)/15% hydroxypropyl-β-cyclodextrin (Nihon Shokuhin Kako Co., Ltd)/300 mM glycine (Wako Pure Chemical Industries, Ltd.)/192 mM sodium hydroxide (Wako Pure Chemical Industries, Ltd.)/physiological saline solution (Otsuka Pharmaceutical Factory, Inc.). Rats were euthanized under anesthesia the day after final administration by collecting blood from the abdominal aorta, and then autopsy was performed to collect the lumbar spine, lower leg bone, and mandible. The lumbar spine, lower leg bone, and mandible were stored in 70% ethanol. The bone mineral densities of the lumbar spine (second to fourth lumbar vertebrae), lower leg bone, and mandible were determined using a dual X-ray bone mineral scanner (DCS-600EX, Aloka).
The data are shown as mean value+standard error (SE). SAS preclinical package ver. 5.00 (SAS Institute Japan) was used to perform the following statistical analyses. The significance level was set to 5% on both sides. With regard to the lumbar spine, lower leg bone, and mandible bone mineral density, parametric Dunnett multiple comparison (*P<0.05) was performed for the three dosage groups of Compound 7 with the Vehicle-Control group as control.

## Cc1cc(N2C(=O)NC(=O)C2(C)C)cc(C)c1CCS(=O)(=O)N1CCC2(CC1)N=C(c1ccc(OC(F)(F)F)cc1)NC2=O [Compound 7, 1-(3,5-dimethyl-4-(2-((4-oxo-2-(4-(trifluoromethoxy)phenyl)-1,3,8-triazaspiro[4.5]deca-1-en-8-yl)sulfonyl)ethyl)phenyl)-5,5-dimethylimidazolidine-2,4-dione]
[1]
  area of the lesion site in the articular cartilage of the lower leg bone: reduce the area of the lesion site in a dose-dependent manner
[2]
  achievement of the therapeutic target range of serum Ca concentration of 7.6 to 8.8 mg/dL: achieved the therapeutic target range
[2]; up to 24 hours after administration
  change of serum Ca concentration from the Pre-value (in words): large positive changes from the Pre-value
[3]; 20 mg/kg
  percentage of increase in the lumbar spine bone mineral density with respect to the Vehicle-Control group: 16%
  percentage of increase of bone mineral density in the lower leg bone with respect to the Vehicle-Control group: 7%
[3]; 30 mg/kg
  percentage of increase in the lumbar spine bone mineral density with respect to the Vehicle-Control group: 21%
  percentage of increase of bone mineral density in the lower leg bone with respect to the Vehicle-Control group: 16%
  percentage of increase of mandible bone mineral density relative to the Vehicle-Control group: 7%
[3]; 50 mg/kg
  percentage of increase in the lumbar spine bone mineral density with respect to the Vehicle-Control group: 25%
  percentage of increase of bone mineral density in the lower leg bone with respect to the Vehicle-Control group: 19%
